Conditions: Liquid, Ebulliometric method (Recirculating still)

CCO [ethanol]
Conditions | vapor or sublimation pressure [kPa]
325.48 K | 33
326.03 K | 33.9
326.48 K | 34.6
326.93 K | 35.3
327.33 K | 36
327.8 K | 36.8
328.26 K | 37.6
328.73 K | 38.4
329.18 K | 39.2
329.62 K | 40
330.11 K | 40.9
330.62 K | 41.9
331.16 K | 42.9
331.66 K | 43.9
332.17 K | 44.9
332.68 K | 45.9
333.15 K | 46.9
333.86 K | 48.4
334.55 K | 49.9
335.17 K | 51.3
335.84 K | 52.8
336.28 K | 53.85
336.81 K | 55.13
337.31 K | 56.32
337.86 K | 57.69
338.32 K | 58.87
338.97 K | 60.49
339.47 K | 61.82
339.99 K | 63.19
340.47 K | 64.47
340.82 K | 65.48
341.18 K | 66.45
341.68 K | 67.91
342.01 K | 68.92
342.53 K | 70.35
343.05 K | 71.88
343.54 K | 73.35
343.97 K | 74.68
344.41 K | 76.08
344.93 K | 77.68
345.3 K | 78.95
345.77 K | 80.44
346.17 K | 81.82
346.75 K | 83.74
347.17 K | 85.17
347.51 K | 86.38
347.91 K | 87.78
348.29 K | 89.17
348.62 K | 90.34
349.03 K | 91.82
349.36 K | 93.08
349.67 K | 94.24
350.05 K | 95.68
350.44 K | 97.16
350.82 K | 98.63
351.17 K | 100.02
351.51 K | 101.38
351.76 K | 102.37
352.07 K | 103.64
352.45 K | 105.17
352.79 K | 106.59
353.15 K | 108.08
353.5 K | 109.58
353.79 K | 110.8
354.14 K | 112.36
354.46 K | 113.75
354.82 K | 115.35
355.15 K | 116.81
355.51 K | 118.44
355.85 K | 120.01
356.22 K | 121.68
356.54 K | 123.23
356.81 K | 124.46
357.16 K | 126.16
357.48 K | 127.68
357.89 K | 129.67

O [water]
Conditions | vapor or sublimation pressure [kPa]
333.02 K | 19.55
333.56 K | 20.05
334.08 K | 20.55
334.59 K | 21.05
335.15 K | 21.6
335.64 K | 22.1
336.11 K | 22.6
336.66 K | 23.15
337.12 K | 23.65
337.65 K | 24.22
338.13 K | 24.75
338.6 K | 25.3
339.12 K | 25.9
339.62 K | 26.45
340.15 K | 27.1
340.63 K | 27.7
341.25 K | 28.45
341.67 K | 29
342.13 K | 29.6
342.71 K | 30.33
343.17 K | 30.95
343.73 K | 31.72
344.21 K | 32.4
344.73 K | 33.15
345.22 K | 33.85
345.66 K | 34.5
346.11 K | 35.15
346.61 K | 35.9
347.15 K | 36.75
347.62 K | 37.5
348.15 K | 38.32
348.22 K | 38.47
348.65 K | 39.18
349.17 K | 40.04
349.68 K | 40.88
350.22 K | 41.85
350.66 K | 42.59
351.18 K | 43.5
351.67 K | 44.39
352.13 K | 45.28
352.64 K | 46.19
353.13 K | 47.14
353.65 K | 48.15
354.12 K | 49.06
354.63 K | 50.07
355.13 K | 51.1
355.71 K | 52.36
356.14 K | 53.24
356.65 K | 54.34
357.13 K | 55.42
357.69 K | 56.64
358.16 K | 57.69
358.65 K | 58.78
359.19 K | 60.08
359.62 K | 61.09
360.26 K | 62.64
360.74 K | 63.82
361.2 K | 64.95
361.61 K | 65.98
362.13 K | 67.33
362.71 K | 68.85
363.17 K | 70.05
363.72 K | 71.54
364.28 K | 73.07
364.75 K | 74.38
365.34 K | 76.08
365.84 K | 77.53
366.34 K | 78.95
366.86 K | 80.58
367.35 K | 82.03
367.83 K | 83.48
368.33 K | 85.04
368.8 K | 86.54
369.27 K | 88.07
369.69 K | 89.44
370.03 K | 90.54
370.62 K | 92.52
371.09 K | 94.12
371.52 K | 95.59
371.94 K | 97.02
372.36 K | 98.48
372.78 K | 100.03
373.16 K | 101.39
373.59 K | 103
374 K | 104.48
374.39 K | 105.94
374.82 K | 107.57
375.18 K | 108.97
375.6 K | 110.58
376.1 K | 112.55
376.46 K | 113.99
376.86 K | 115.58
377.21 K | 117.02
377.57 K | 118.54
377.92 K | 119.94
378.29 K | 121.58
378.65 K | 123.07
378.99 K | 124.48
379.33 K | 126.01
379.71 K | 127.64
380 K | 128.92
380.36 K | 130.53
380.74 K | 132.25

Reference: the NIST ThermoML archive (doi:10.1021/je900719z)
